# From ChEMBL document CHEMBL1201862, “PubChem BioAssay data set” (2004)
#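 Values below derive from 48-hour exposures of cells grown in 96-well plates, with endpoints linearly interpolated between the two concentrations bracketing the appropriate inhibition level. The concentration for 50% growth inhibition is given as GI50.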 Calls of active or inactive are those of the source. No stated cut-off is given here; in the data, active = GI50 up to about 1.1 µM and inactive = higher.
# Assays:
# Experiment in all cases: NCI anticancer screen, dose series, 48 h
# SNB-19 = tested on: SNB-19
# UO-31 = tested on: UO-31
# HL-60 = tested on: HL-60
# CAKI-1 = tested on: CAKI-1
# SK-OV-3 = tested on: SK-OV-3
# MDA-MB-435 = tested on: MDA-MB-435
# MDA-MB-231 = tested on: MDA-MB-231
# U-251 = tested on: U-251
# SN12C = tested on: SN12C
# TK-10 = tested on: TK-10
# 786-0 = tested on: 786-0
# PC-3 = tested on: PC-3
# SF-268 = tested on: SF-268
# EKVX = tested on: EKVX
# A549 = tested on: A549
# NCI-H460 = tested on: NCI-H460
# MOLT-4 = tested on: MOLT-4
# NCI/ADR-RES = tested on: NCI/ADR-RES
# UACC-62 = tested on: UACC-62
# OVCAR-4 = tested on: OVCAR-4
# OVCAR-5 = tested on: OVCAR-5
# HCT-116 = tested on: HCT-116
# COLO 205 = tested on: COLO 205
# SK-MEL-5 = tested on: SK-MEL-5
# KM12 = tested on: KM12
# SF-539 = tested on: SF-539
# Malme-3M = tested on: Malme-3M
# NCI-H522 = tested on: NCI-H522
# CCRF-CEM = tested on: CCRF-CEM
# DU-145 = tested on: DU-145
# IGROV-1 = tested on: IGROV-1
# HCC 2998 = tested on: HCC 2998
# SF-295 = tested on: SF-295
# LOX IMVI = tested on: LOX IMVI
# UACC-257 = tested on: UACC-257
# T47D = tested on: T47D
# HOP-92 = tested on: HOP-92
# M14 = tested on: M14
# A498 = tested on: A498
# BT-549 = tested on: BT-549
# HOP-62 = tested on: HOP-62
# OVCAR-3 = tested on: OVCAR-3
# RPMI-8226 = tested on: RPMI-8226
# HCT-15 = tested on: HCT-15
# SW-620 = tested on: SW-620
# MCF7 = tested on: MCF7
# SK-MEL-28 = tested on: SK-MEL-28
# RXF 393 = tested on: RXF 393
# ACHN = tested on: ACHN
# NCI-H23 = tested on: NCI-H23
# MDA-N = tested on: MDA-N
# SK-MEL-2 = tested on: SK-MEL-2
# Hs-578T = tested on: Hs-578T
# NCI-H226 = tested on: NCI-H226
# OVCAR-8 = tested on: OVCAR-8
# HT-29 = tested on: HT-29
# K562 = tested on: K562
# SR = tested on: SR
# SNB-75 = tested on: SNB-75
structure (smiles),measurement,setting,value
COc1ccc(/C=C2\Sc3nnc(C)n3N=C2c2cc(F)c(Cl)cc2Cl)cc1OC,GI50,SNB-19,1.19 µM (inactive)
same,GI50,UO-31,10.4 µM (inactive)
same,GI50,HL-60,8.95 µM (inactive)
same,GI50,CAKI-1,8.13 µM (inactive)
same,GI50,SK-OV-3,30.1 µM (inactive)
same,GI50,MDA-MB-435,10.4 µM (inactive)
same,GI50,MDA-MB-231,26.4 µM (inactive)
same,GI50,U-251,15.8 µM (inactive)
same,GI50,SN12C,17.5 µM (inactive)
same,GI50,TK-10,17.9 µM (inactive)
same,GI50,786-0,2.97 µM (inactive)
same,GI50,PC-3,18.7 µM (inactive)
same,GI50,SF-268,22.4 µM (inactive)
same,GI50,EKVX,10.8 µM (inactive)
same,GI50,A549,21.2 µM (inactive)
same,GI50,NCI-H460,20.8 µM (inactive)
same,GI50,MOLT-4,3.35 µM (inactive)
same,GI50,NCI/ADR-RES,14.6 µM (inactive)
same,GI50,UACC-62,16.7 µM (inactive)
same,GI50,OVCAR-4,13.2 µM (inactive)
same,GI50,OVCAR-5,15.6 µM (inactive)
same,GI50,HCT-116,5.98 µM (inactive)
same,GI50,COLO 205,22.3 µM (inactive)
same,GI50,SK-MEL-5,18.8 µM (inactive)
same,GI50,KM12,15.2 µM (inactive)
same,GI50,SF-539,17 µM (inactive)
same,GI50,Malme-3M,18.3 µM (inactive)
same,GI50,NCI-H522,11.3 µM (inactive)
same,GI50,CCRF-CEM,4.18 µM (inactive)
same,GI50,DU-145,14.7 µM (inactive)
same,GI50,IGROV-1,16 µM (inactive)
same,GI50,HCC 2998,17.6 µM (inactive)
same,GI50,SF-295,22.1 µM (inactive)
same,GI50,LOX IMVI,13.8 µM (inactive)
same,GI50,UACC-257,17 µM (inactive)
same,GI50,T47D,24.8 µM (inactive)
same,GI50,HOP-92,13.8 µM (inactive)
same,GI50,M14,13.6 µM (inactive)
same,GI50,A498,19.3 µM (inactive)
same,GI50,BT-549,17.8 µM (inactive)
same,GI50,HOP-62,17 µM (inactive)
same,GI50,OVCAR-3,4.52 µM (inactive)
same,GI50,RPMI-8226,2.58 µM (inactive)
same,GI50,HCT-15,6.93 µM
same,GI50,SW-620,5.33 µM (inactive)
same,GI50,MCF7,5.87 µM (inactive)
same,GI50,SK-MEL-28,23.3 µM (inactive)
same,GI50,RXF 393,15.9 µM (inactive)
same,GI50,ACHN,12.6 µM (inactive)
same,GI50,NCI-H23,12.4 µM (inactive)
same,GI50,MDA-N,5.32 µM (inactive)
same,GI50,SK-MEL-2,15.9 µM (inactive)
same,GI50,Hs-578T,41.9 µM (inactive)
same,GI50,NCI-H226,23.2 µM (inactive)
same,GI50,OVCAR-8,15.5 µM (inactive)
same,GI50,HT-29,13.2 µM (inactive)
same,GI50,K562,3.09 µM (inactive)
C/N=C1\OC2=C3C(c4ccccc4)(O/C(=N/C)N(C)C3(c3ccccc3)OC2=O)N1C (centres undefined),GI50,SNB-19,> 100 µM (inactive)
same,GI50,UO-31,> 10 µM (inactive)
same,GI50,HL-60,> 100 µM (inactive)
same,GI50,CAKI-1,> 100 µM (inactive)
same,GI50,SK-OV-3,> 100 µM (inactive)
same,GI50,MDA-MB-231,> 100 µM (inactive)
same,GI50,U-251,> 100 µM (inactive)
same,GI50,SN12C,> 100 µM (inactive)
same,GI50,TK-10,> 100 µM (inactive)
same,GI50,786-0,> 100 µM (inactive)
same,GI50,PC-3,> 100 µM (inactive)
same,GI50,SF-268,> 100 µM (inactive)
same,GI50,EKVX,> 100 µM (inactive)
same,GI50,A549,> 100 µM (inactive)
same,GI50,NCI-H460,> 100 µM (inactive)
same,GI50,MOLT-4,> 100 µM (inactive)
same,GI50,SR,> 100 µM (inactive)
same,GI50,NCI/ADR-RES,> 100 µM (inactive)
same,GI50,UACC-62,> 100 µM (inactive)
same,GI50,OVCAR-4,> 100 µM (inactive)
same,GI50,OVCAR-5,> 100 µM (inactive)
same,GI50,HCT-116,> 100 µM (inactive)
same,GI50,COLO 205,> 100 µM (inactive)
same,GI50,SK-MEL-5,> 100 µM (inactive)
same,GI50,KM12,> 100 µM (inactive)
same,GI50,SF-539,> 100 µM (inactive)
same,GI50,NCI-H522,> 100 µM (inactive)
same,GI50,CCRF-CEM,> 100 µM (inactive)
same,GI50,DU-145,> 100 µM (inactive)
same,GI50,IGROV-1,> 100 µM (inactive)
same,GI50,HCC 2998,> 100 µM (inactive)
same,GI50,SF-295,> 100 µM (inactive)
same,GI50,UACC-257,> 100 µM (inactive)
same,GI50,T47D,> 100 µM (inactive)
same,GI50,M14,> 100 µM (inactive)
same,GI50,A498,> 100 µM (inactive)
same,GI50,BT-549,> 100 µM (inactive)
same,GI50,HOP-62,> 100 µM (inactive)
same,GI50,OVCAR-3,> 100 µM (inactive)
same,GI50,HCT-15,> 100 µM
same,GI50,SNB-75,71.4 µM (inactive)
same,GI50,SW-620,> 100 µM (inactive)
same,GI50,MCF7,> 100 µM (inactive)
same,GI50,SK-MEL-28,> 100 µM (inactive)
same,GI50,ACHN,> 100 µM (inactive)
same,GI50,NCI-H23,> 100 µM (inactive)
same,GI50,MDA-N,> 100 µM (inactive)
same,GI50,SK-MEL-2,23.7 µM (inactive)
same,GI50,Hs-578T,> 100 µM (inactive)
same,GI50,NCI-H226,> 100 µM (inactive)
same,GI50,OVCAR-8,> 100 µM (inactive)
same,GI50,HT-29,> 100 µM (inactive)
same,GI50,K562,> 100 µM (inactive)
COC(=O)Nc1nc(=O)c2cc(OC)c(OC)cc2[nH]1,GI50,SNB-19,36.4 µM (inactive)
same,GI50,UO-31,49.4 µM (inactive)
same,GI50,HL-60,7.46 µM (inactive)
same,GI50,CAKI-1,20.2 µM (inactive)
same,GI50,SK-OV-3,42.1 µM (inactive)
same,GI50,MDA-MB-231,81.3 µM (inactive)
same,GI50,U-251,61.5 µM (inactive)
same,GI50,SN12C,64.9 µM (inactive)
same,GI50,TK-10,> 100 µM (inactive)
same,GI50,786-0,45.5 µM (inactive)
same,GI50,PC-3,3.29 µM (inactive)
same,GI50,SF-268,> 100 µM (inactive)
same,GI50,EKVX,> 100 µM (inactive)
same,GI50,A549,> 100 µM (inactive)
same,GI50,NCI-H460,9.33 µM (inactive)
same,GI50,MOLT-4,6.84 µM (inactive)
same,GI50,SR,> 100 µM (inactive)
same,GI50,NCI/ADR-RES,5.47 µM (inactive)
same,GI50,UACC-62,6.56 µM (inactive)
same,GI50,OVCAR-4,> 100 µM (inactive)
same,GI50,OVCAR-5,> 100 µM (inactive)
same,GI50,HCT-116,5.2 µM (inactive)
same,GI50,COLO 205,4.4 µM (inactive)
same,GI50,SK-MEL-5,6.35 µM (inactive)
same,GI50,KM12,5.31 µM (inactive)
same,GI50,SF-539,24.2 µM (inactive)
same,GI50,Malme-3M,5.31 µM (inactive)
same,GI50,NCI-H522,2.37 µM (inactive)
same,GI50,CCRF-CEM,6.04 µM (inactive)
same,GI50,DU-145,32.7 µM (inactive)
same,GI50,IGROV-1,15.2 µM (inactive)
same,GI50,HCC 2998,71.3 µM (inactive)
same,GI50,SF-295,4.66 µM (inactive)
same,GI50,UACC-257,> 100 µM (inactive)
same,GI50,T47D,36 µM (inactive)
same,GI50,M14,> 100 µM (inactive)
same,GI50,A498,71.9 µM (inactive)
same,GI50,BT-549,15.3 µM (inactive)
same,GI50,HOP-62,44.6 µM (inactive)
same,GI50,OVCAR-3,> 100 µM (inactive)
same,GI50,HCT-15,17.5 µM
same,GI50,SNB-75,11.6 µM (inactive)
same,GI50,SW-620,3.85 µM (inactive)
same,GI50,MCF7,6.15 µM (inactive)
same,GI50,SK-MEL-28,63 µM (inactive)
same,GI50,ACHN,> 100 µM (inactive)
same,GI50,NCI-H23,50 µM (inactive)
same,GI50,MDA-N,2.31 µM (inactive)
same,GI50,SK-MEL-2,> 100 µM (inactive)
same,GI50,Hs-578T,66.1 µM (inactive)
same,GI50,NCI-H226,37.6 µM (inactive)
same,GI50,OVCAR-8,47.6 µM (inactive)
same,GI50,HT-29,6.68 µM (inactive)
same,GI50,K562,3.59 µM (inactive)
